Experiments:
[1] = tested on: recombinant human CFTR carrying the premature stop codon (PTC) mutation G542X; assay: CFTR-PTC mutant translation readthrough, Nanoluc tagged CFTR luminescence (G542X cell line); type: cell-based; conditions: in combination with G418, G542X cell line; for CFTR G542X ACTIVITY Fold 10 μM G-418: fold over 10 μM G-418; for EC50: 16HBE cells
Procedure, shortened: (§1)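 Readthrough is the 48 h compound-induced luminescence increase scaled to that of maximal G418 (125-250 μM). Compounds run from 50 μM final in 2-fold steps, ±10 μM G418, on 16HBE lines carrying Nanoluc-tagged CFTR G542X (extracellular loop 4 tag) or R1162X (C-terminal tag), with 3 μM VX-809 present.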

[2] = tested on: recombinant human CFTR carrying the premature stop codon (PTC) mutation R1162X; assay: CFTR-PTC mutant translation readthrough, Nanoluc tagged CFTR luminescence (R1162X cell line); type: cell-based; conditions: for CFTR R1162X ACTIVITY Fold 10 μM G-418: fold over 10 μM G-418, in combination with G418; for EC50: in combination with G418, 16HBE cells, read-out: CFTR R1162X ACTIVITY EC50
Procedure, shortened: as §1

EC50 [1] [nM]	EC50 [2] [nM]	SMILES	CFTR G542X ACTIVITY Fold 10 μM G-418 [1]	CFTR R1162X ACTIVITY Fold 10 μM G-418 [2]
1000 to 10000	1000 to 10000	OC[C@H]1CN(c2ncc(OCc3c(Cl)cccc3Cl)cn2)C[C@@H](C(F)(F)F)O1 (racemic)	A′ (A′ = ≥10X)	A′ (A′ = ≥10X)
< 1000	< 1000	OC[C@@H]1CN(c2ncc(OCc3c(Cl)cccc3C(F)(F)F)cn2)CCO1	A′ (A′ = ≥10X)	A′ (A′ = ≥10X)
< 1000	< 1000	Cc1cccc(C(F)(F)F)c1COc1cnc(N(C)CCCCO)nc1	A′ (A′ = ≥10X)	A′ (A′ = ≥10X)
1000 to 10000	1000 to 10000	N#Cc1ncn(-c2ncc(OCc3c(Cl)cccc3Cl)cn2)n1 [1-[5-[(2,6-dichlorophenyl)methoxy]pyrimidin-2-yl]-1,2,4-triazole-3-carbonitrile]	A′ (A′ = ≥10X)	C′ (C′ = <5X)
1000 to 10000	< 1000	N#Cc1ccn(-c2ncc(OCc3c(Cl)cccc3Cl)cn2)n1 [1-[5-[(2,6-dichlorophenyl)methoxy]pyrimidin-2-yl]pyrazole-3-carbonitrile]	A′ (A′ = ≥10X)	B′ (B′ = ≥5X to <10X)
1000 to 10000	1000 to 10000	OCc1cn(-c2ncc(OCc3c(Cl)cccc3Cl)cn2)nn1 [[1-[5-[(2,6-dichlorophenyl)methoxy]pyrimidin-2-yl]triazol-4-yl]methanol]	A′ (A′ = ≥10X)	A′ (A′ = ≥10X)
1000 to 10000	1000 to 10000	NC(=O)N1CCN(c2ncc(OCc3c(Cl)cccc3Cl)cn2)CC(O)C1 (stereo not shown)	A′ (A′ = ≥10X)	A′ (A′ = ≥10X)
1000 to 10000	1000 to 10000	Cc1cccc(C(F)(F)F)c1COc1ccc(-n2cnc(C(=O)O)n2)cc1	A′ (A′ = ≥10X)	A′ (A′ = ≥10X)
< 1000	< 1000	Cc1cccc(C(F)(F)F)c1COc1cnc(N2CCN(C(N)=O)C(CO)C2)nc1 (stereo not shown)	A′ (A′ = ≥10X)	A′ (A′ = ≥10X)
< 1000	1000 to 10000	Cc1cccc(C(F)(F)F)c1COc1cnc(N2CCC[C@@H](O)C2)nc1	A′ (A′ = ≥10X)	A′ (A′ = ≥10X)
1000 to 10000	1000 to 10000	Cc1cccc(C(F)(F)F)c1COc1cnc(-n2cnnc2)nc1 [5-[[2-methyl-6-(trifluoromethyl)phenyl]methoxy]-2-(1,2,4-triazol-4-yl)pyrimidine]	A′ (A′ = ≥10X)	A′ (A′ = ≥10X)
1000 to 10000	1000 to 10000	Cn1cc(-c2ccc(OCc3c(Cl)cccc3Cl)cn2)nn1 [5-[(2,6-dichlorophenyl)methoxy]-2-(1-methyltriazol-4-yl)pyridine]	A′ (A′ = ≥10X)	A′ (A′ = ≥10X)
1000 to 10000	1000 to 10000	NC(=O)N1CC2(C1)CN(c1ncc(OCc3c(Cl)cccc3C(F)(F)F)cn1)C2	A′ (A′ = ≥10X)	B′ (B′ = ≥5X to <10X)
< 1000	1000 to 10000	OCc1cn(-c2ccc(OCc3c(Cl)cccc3Cl)cc2)cn1 [[1-[4-[(2,6-dichlorophenyl)methoxy]phenyl]imidazol-4-yl]methanol]	A′ (A′ = ≥10X)	A′ (A′ = ≥10X)
1000 to 10000	1000 to 10000	OCc1nc(-c2ncc(OCc3c(Cl)cccc3Cl)cn2)co1 [[4-[5-[(2,6-dichlorophenyl)methoxy]pyrimidin-2-yl]oxazol-2-yl]methanol]	A′ (A′ = ≥10X)	A′ (A′ = ≥10X)
< 1000	1000 to 10000	OCc1cc(-c2ncc(OCc3c(Cl)cccc3C(F)(F)F)cn2)no1	A′ (A′ = ≥10X)	A′ (A′ = ≥10X)
< 1000	< 1000	Cc1cccc(C(F)(F)F)c1COc1cnc(N2CCO[C@H](CN)C2)nc1	A′ (A′ = ≥10X)	A′ (A′ = ≥10X)
< 1000	1000 to 10000	Cc1cccc(C(F)(F)F)c1COc1ccc(-n2cnc(CN)n2)cc1	A′ (A′ = ≥10X)	A′ (A′ = ≥10X)

EC50 [1] [nM]	EC50 [2] [nM]	SMILES	CFTR G542X ACTIVITY Fold 10 μM G-418 [1]	CFTR R1162X ACTIVITY Fold 10 μM G-418 [2]
1000 to 10000	1000 to 10000	O=C1COC(=O)N1c1ccc(OCc2c(Cl)cccc2Cl)cc1 [3-[4-[(2,6-dichlorophenyl)methoxy]phenyl]oxazolidine-2,4-dione]	B′ (B′ = ≥5X to <10X)	C′ (C′ = <5X)
> 10000	1000 to 10000	FC(F)(F)c1cccc(Cl)c1COc1cnc(N2CCC3(CCCNC3)C2)nc1 (stereo not shown)	A′ (A′ = ≥10X)	A′ (A′ = ≥10X)
< 1000	< 1000	Cc1cccc(C(F)(F)F)c1COc1ccc(-n2ncc(CO)n2)nc1	A′ (A′ = ≥10X)	A′ (A′ = ≥10X)
1000 to 10000	1000 to 10000	Cc1cccc(C(F)(F)F)c1COc1cnc(N2CC[C@@H](C(N)=O)C2)nc1	A′ (A′ = ≥10X)	A′ (A′ = ≥10X)
< 1000	< 1000	CC1(O)CCN(c2ncc(OCc3c(Cl)cccc3C(F)(F)F)cn2)CC1	A′ (A′ = ≥10X)	A′ (A′ = ≥10X)
< 1000	1000 to 10000	O=C1NC2(CCCC2)C(=O)N1c1ccc(OCc2c(Cl)cccc2C(F)(F)F)cc1	A′ (A′ = ≥10X)	B′ (B′ = ≥5X to <10X)
1000 to 10000	1000 to 10000	O=C(NCC1CN(c2ncc(OCc3c(Cl)cccc3Cl)cn2)CCO1)C(F)(F)F (stereo not shown)	A′ (A′ = ≥10X)	B′ (B′ = ≥5X to <10X)
< 1000	< 1000	Cc1cccc(C(F)(F)F)c1COc1cnc(N2CCN(C(N)=O)[C@@H](C)C2)nc1	A′ (A′ = ≥10X)	A′ (A′ = ≥10X)
< 1000	1000 to 10000	CCc1cccc(C(F)(F)F)c1COc1ccc(N2CC(CO)NC2=O)cc1 (stereo not shown)	A′ (A′ = ≥10X)	A′ (A′ = ≥10X)
< 1000	1000 to 10000	CC(=O)NC[C@@H]1CN(c2ncc(OCc3c(C)cccc3C(F)(F)F)cn2)CCO1	A′ (A′ = ≥10X)	A′ (A′ = ≥10X)
< 1000	< 1000	Cc1cccc(C(F)(F)F)c1COc1cnc(N2CCC(O)C(C)(C)C2)nc1 (stereo not shown)	A′ (A′ = ≥10X)	A′ (A′ = ≥10X)
< 1000	< 1000	CCc1cccc(C(F)(F)F)c1COc1ccc(N2C[C@@H](CO)NC2=O)nc1	C′ (C′ = <5X)	C′ (C′ = <5X)
1000 to 10000	> 10000	O=C1NC2(CCCC2)C(=O)N1c1ncc(OCc2c(Cl)cccc2Cl)cn1	A′ (A′ = ≥10X)	A′ (A′ = ≥10X)
< 1000	< 1000	NC(=O)C1CCCN(c2ncc(OCc3c(Cl)cccc3Cl)cn2)C1 (stereo not shown) [1-[5-[(2,6-dichlorophenyl)methoxy]pyrimidin-2-yl]piperidine-3-carboxamide]	A′ (A′ = ≥10X)	A′ (A′ = ≥10X)
< 1000	< 1000	CCc1cccc(C(F)(F)F)c1COc1ccc(N2CCOC(CO)C2)cc1 (stereo not shown) [[4-[4-[[2-ethyl-6-(trifluoromethyl)phenyl]methoxy]phenyl]morpholin-2-yl]methanol]	A′ (A′ = ≥10X)	A′ (A′ = ≥10X)
1000 to 10000	> 10000	OCc1cn(-c2ccc(OCc3c(Cl)cccc3Cl)cn2)cn1 [[1-[5-[(2,6-dichlorophenyl)methoxy]-2-pyridyl]imidazol-4-yl]methanol]	B′ (B′ = ≥5X to <10X)	A′ (A′ = ≥10X)
1000 to 10000	1000 to 10000	Cc1cccc(C(F)(F)F)c1COc1ccc(N2CCOC(CO)C2)nc1 (stereo not shown)	A′ (A′ = ≥10X)	A′ (A′ = ≥10X)
< 1000	< 1000	OCc1cn(-c2ccc(OCc3c(Cl)cccc3Cl)cn2)nn1 [[1-[5-[(2,6-dichlorophenyl)methoxy]-2-pyridyl]triazol-4-yl]methanol]	A′ (A′ = ≥10X)	A′ (A′ = ≥10X)

SMILES	EC50 [1] [nM]	EC50 [2] [nM]	CFTR G542X ACTIVITY Fold 10 μM G-418 [1]	CFTR R1162X ACTIVITY Fold 10 μM G-418 [2]
OCc1cn(-c2ccc(OCc3cc(Cl)cc(Cl)c3)cc2)cn1 [[1-[4-[(3,5-dichlorophenyl)methoxy]phenyl]imidazol-4-yl]methanol]	1000 to 10000	> 10000	–	C′ (C′ = <5X)
OCc1cn(-c2ncc(OCc3c(Cl)cccc3C(F)(F)F)cn2)cn1	< 1000	< 1000	C′ (C′ = <5X)	C′ (C′ = <5X)

— patent US20250228865A1, “COMPOUNDS FOR ENHANCING READ THROUGH OF GENES CONTAINING PREMATURE TERMINATION CODONS AND METHODS FOR MAKING AND USING THE SAME” (Sanofi US Services Inc., priority 2022, published 2025)
